Measured values: patent US20230025280A1, “PH RESPONSIVE COMPOSITIONS, FORMULATIONS, AND METHODS OF IMAGING A TUMOR” (ONCONANO MEDICINE, INC, priority 2019, published 2023)
Values joined by “and” are separate entries in the source; they are usually repeats but may differ in a detail not shown here. Equal values may be shown once.

Test system: solid cancers (HNSCC, breast cancer, esophageal cancer, or colorectal cancer)
Assay: Intraoperative fluorescence imaging of tumors (in vivo and back table; MFI, CNR, TBR)
Design: species or system human
Conditions: for In Vivo CNR / In Vivo TBR: per patient, open field cameras; for Patient tumors showing Compound 1 fluorescence intraoperatively: 0.1 to 1.2 mg/kg, 24±8 h post dose; for Tumors visualized intraoperatively by Compound 1 fluorescence / Tumors that could not be visualized intraoperatively: Phase 1 overall
From the text: During surgery, intraoperative images of Compound 1 fluorescence were obtained from the primary tumors and metastatic lymph nodes as well as the surrounding tissue which include normal noncancerous tissues using NIR camera(s). This may be in vivo and/or ex vivo imaging of resected specimens. If the surgeon considered it safe, up to a maximum of 10 study related biopsies were taken from the regions with Compound 1 fluorescence that were otherwise not suspected as tumor clinically. Feasibility to image tumors with Compound 1 using multiple NIR cameras was evaluated.
Intraoperative images and videos of “open surgery” were obtained using either the NOVADAQ SPY Elite or the SurgVision Explorer Air. The distance of the camera to the tumor was approximately 20 cm for the Explorer Air and 30 cm for the NOVADAQ SPY, according to manual instructions. The NOVADAQ SPY camera was only able to make fluorescent videos, which could be converted to images during post-processing. The settings for raw data acquisition for this camera were fixed. For the Explorer Air, attempt was made to use the same settings (exposure time and gain) for each patient to allow direct comparison between the images obtained from both the systems, however, depending on the amount of fluorescence visible during surgery, adjustments were needed in some cases due to saturation of the camera system. In some patients, the Olympus NIR laparoscope and Da Vinci Firefly camera systems were used when no open surgery was performed. Systems were used according to the manufacturer's manual.
First, pre-excision fluorescence images and/or movies of the tumor and surrounding areas were made. After surgical excision, images of the wound bed were obtained. In cases where a fluorescence region was visible in the wound bed, a biopsy was taken when feasible, and the excised specimen imaged on all sides on the back table in the operating room. If applicable, lymph nodes were imaged when possible in situ and on the back table, after which the wound bed of the lymph node dissection was imaged again.
Designated imaging study staff performed fluorescence imaging. The surgeon was blinded to the pre-excision imaging to avoid any bias on standard surgery, but was able to look at a second monitor for white-light images while performing the surgical procedure. The surgeon assisted in the wound bed and back table imaging. During the imaging procedure, the ambient light in the surgical theatre was switched off to prevent possible interaction with the fluorescence imaging procedure itself.
Images were processed using Fiji (ImageJ, version 2.0.0). Images were scaled on a per-patient basis, based on the maximum and minimum fluorescent intensity per pixel.
Immediately after excision, the whole specimen was imaged on all 6 resection planes (e.g., frontal, dorsal, lateral, medial, caudal and cranial) using both the designated intraoperative camera system as well as the LI-COR PEARL® Trilogy system within a maximum duration of 60 minutes after surgical excision of the specimen (intraoperative back table imaging). […] Specimens were inked with blue and black ink to mark resection planes.
A macroscopic correlation between visible white light of the tumor areas and corresponding fluorescence images was made. After drawing ROIs containing macroscopic tumor and ROIs containing background, MFI of both tumor and background areas were calculated. Fluorescence ratios (CNR, TBR) were calculated on a per patient basis (3 measurements per patient) following the calculations described above.

## PEO90-140-b-P(DBA60-150-r-ICG0-3-r-AMA0-3) [Compound 1]
0.1 mg/kg, HNSCC
  In Vivo CNR: 2.9 and 21.5 and 3.3
  In Vivo TBR: 1.7 (2×) and 5.7
0.5 mg/kg, BC
  In Vivo CNR: 2.5
  In Vivo TBR: 1.6
0.5 mg/kg, HNSCC
  In Vivo CNR: 17.3 and 29.3
  In Vivo TBR: 3.3 and 5.0
0.8 mg/kg, BC
  In Vivo CNR: 12.7
  In Vivo TBR: 3.7
0.8 mg/kg, HNSCC
  In Vivo CNR: 4.1
  In Vivo TBR: 2.7
1.2 mg/kg, Phase 1a and 1b, all tumor types
  Patients for whom in vivo (intraoperative) imaging was feasible: 11 of 18 and 11 of the 18
1.2 mg/kg, BC
  Patients for whom in vivo imaging was feasible: 3 of 5
  In Vivo CNR: 7.8 and 9.2 and 1.3
  In Vivo TBR: 3.9 and 3.4 and 1.2
1.2 mg/kg, CRC
  Patients for whom in vivo imaging was feasible: 1 of 3
  In Vivo CNR: 7.4
  In Vivo TBR: 2.4
1.2 mg/kg, EC
  Patients for whom in vivo imaging was feasible: 0 of 3
1.2 mg/kg, HNSCC
  Patients for whom in vivo imaging was feasible: 7 of 7
  In Vivo CNR: 28.7 and 5.8 and 20.8 and 29.9 and 3.4 and 2.8 and 3.5
  In Vivo TBR: 4.7 and 2.1 and 2.9 and 5.4 and 2.3 and 1.8 and 2.7
1.2 mg/kg, mucosal tumors (HNSCC), interquartile range of 1.4
  Median in vivo TBR: 2.6
1.2 mg/kg, mucosal tumors (HNSCC), interquartile range of 17.6
  Median in vivo CNR: 5.6
Phase 1, all 4 tumor types
  Patients in whom fluorescence imaging was feasible (patients with viable tumors): 29 out of 30
Phase 1a, BC
  Patient tumors showing Compound 1 fluorescence intraoperatively: Two of the 7 and 2 of 7
Phase 1a, HNSCC
  Patient tumors showing Compound 1 fluorescence intraoperatively: 8 and 8 of 8
Phase 1a, in vivo tumor and postoperative specimen fluorescence
  CNR and TBR values: 2-15
Phase 1b, 3 EC tumors, extraluminal imaging, 1.2 mg/kg
  Intraoperative detection of intraluminal EC tumors: not detected
Phase 1b, BC, 1.2 mg/kg
  Patient tumors in which Compound 1 fluoresced intraoperatively: 3 of 4
Phase 1b, CRC, 1.2 mg/kg
  Patient tumors in which Compound 1 fluoresced intraoperatively: 2 of 3
Phase 1b, HNSCC, 1.2 mg/kg
  Patient tumors in which Compound 1 fluoresced intraoperatively: 5 of 5
Phase 1b, all tumor types, 1.2 mg/kg
  Patient tumors in which Compound 1 fluoresced intraoperatively: 10/15
CRC
  Tumors visualized intraoperatively by Compound 1 fluorescence: 2 of 3
CRC (distant rectal tumor)
  Tumors that could not be visualized intraoperatively: 1 of 3
HNSCC
  Tumors visualized intraoperatively by Compound 1 fluorescence: 13
Deeper seated BC
  Tumors that could not be visualized intraoperatively: 6 of 11
Intraluminal EC
  Tumors that could not be visualized intraoperatively: 2 of 3
Superficially seated BC
  Tumors visualized intraoperatively by Compound 1 fluorescence: 5 of 11
All patients with feasible intraoperative imaging
  Intraoperative TBR and CNR values: high
